Data taken from patent US20060018833A1, “Method and system for screening compounds for muscular and/or neurological activity in animals” (priority 2004, published 2006).

How the values were obtained:
teleosts = experiment: Electrically induced seizures in teleost fish, blocking by anticonvulsants; type: in vivo, teleost (Medaka); conditions: compound in the water, "(10-80 μM)" printed after phenytoin
From the text: Consistent electrical-induced seizures are achieved by optimizing both maximum voltage achieved, overall power delivered during relatively constant current. Electrodes are placed in the wells from above just prior to commencement of the test.
Convulsions are produced by the placing a circular array of 6 stainless steal wire electrodes (around 100 μm in outside diameter) around the perimeter of a single well in a 48 well plate. The electrodes are insulated to the tips on the side of the electrodes that face the inside of the well. In this way the fish is less likely to contact the metal of the electrode that faces the well wall. A seizure is evoked by the application of a constant duration pulse of a constant current sine wave oscillating voltage field. The amount of current applied depends on the electrical impedance of the arrangement. In general around 30 mA of current at around 70 RMS volts is sufficient to produce a reliable seizure in a 2-3 week old Medaka fish. During the pulse the output is randomly scrambled to opposing pairs of the six electrodes via a high voltage MUX circuit. The electronics to produce the above stimulation are apparent to person skilled at the art.
The application of sufficient electrical current to the water containing a fish will evoke a behavioral response. However, at a specific range of current/voltage settings (30-110 V; 20 mA-0.1 mA) an animal will have a seizure, experience a post-ictal period of quiescence and recover. […] Application of a battery of classic anticonvulsants known to block seizure generation in animals will block the expression of seizures in teleost.

zebrafish = experiment: Determining convulsive dose of convulsant added to well water (zebrafish); type: in vivo
Experimental: To establish the minimum seizure threshold dose (CD50) for convulsant agents 5 ml of tank water is placed a single well of a 12-well plate. […] When the animal has acclimated to the new conditions, a solution containing convulsant (e.g. a 20 mM solution of pentylenetetrazol (PTZ) in tank water) is added to the well at a rate of 0.1 ml per minute. The amount of solution being added is constant. The behavior of the fish is then monitored continuously during the rest period beginning with the addition of the convulsant. At the point which the animal has a convulsion the addition is stopped and the animal removed. […] This dose is considered the convulsive dose (>97%) for teleost.

Medaka = experiment: Determining convulsive dose of convulsant added to well water (Medaka); type: in vivo; conditions: 20 mM PTZ solution added at 0.1 ml per minute to 5 ml tank water
Experimental: To establish the minimum seizure threshold dose (CD50) for convulsant agents 5 ml of tank water is placed a single well of a 12-well plate. A single juvenile teleost is placed in the well and allowed to acclimate for a period of time in a darkened room. When the animal has acclimated to the new conditions, a solution containing convulsant (e.g. a 20 mM solution of pentylenetetrazol (PTZ) in tank water) is added to the well at a rate of 0.1 ml per minute. The amount of solution being added is constant. The behavior of the fish is then monitored continuously during the rest period beginning with the addition of the convulsant. At the point which the animal has a convulsion the addition is stopped and the animal removed. […] This dose is considered the convulsive dose (>97%) for teleost.

Medaka fish = experiment: Chemically (PTZ) induced seizure activity in Medaka fish, anticonvulsant screen (FIG. 5); type: in vivo
Experimental: One embodiment of the screen for anticonvulsant activity in the presence of a chemical stimulus includess placing a single or plurality of adult (1 month) fish into each well of a 12 well plate. This well contains 4 ml of pure tank water with a defined pH (7.0 can be between 6-8), hardness (90 ppm). The test compounds are then applied to the wells in 12 concentrations ranging from 10 μM to 10 mM. The compounds are diluted from standard DMSO stock solutions stored in other multiwell plates. Test compounds are added as either tank water diluted solutions or as DMSO concentrates. […] The compounds are added to wells after the optical clarity (transmittance) of the well water is determined. Following addition of the compounds to the wells a second transmittance measure is made to determine if the compound has dropped out of solution at any of the concentrations. […] Highly insoluble compounds are solublized in cyclodextrins or mixed with wet fish food, dried and applied at a known amount to wells containing a fish that was not fed for a day.
Plates containing soluble compounds are covered with plastic tops from the manufacturer and placed in an incubator set around 27 degrees centigrade and an oxygen rich atmosphere. […] Fish are examined by the operator for deaths and they are scored as such.
Testing is performed in a visible light darkened, sound dampened room upon a highly diffused infrared light box. […] Excess or erratic activity is automatically determined by a computer algorhythim during a 20 minute control period. […]
The image sequence collected following the administration is examined by a computer program which determines a number of factors about the activity of the fish including orientation, location, distance traveled, and cross sectional area of the fish's silhouette. […] Activity levels reaching specific thresholds and the type of activity (circular swimming and erratic darting) are scored along with periods of quiescence. […] The latency to first seizure and the magnitude and frequency of seizures are scored for each well. […]

NC(=O)N1c2ccccc2C=Cc2ccccc21 [Carbamazepine]
blocking seizure specific behavioral movements following electrical stimulation (teleosts): capable of blocking seizure specific behavioral movements

C1CCc2nnnn2CC1 [PTZ, pentylenetetrazol]
seizure evoked, share of fish (zebrafish; adult zebrafish immersed in 5 mM PTZ, within 30 minutes of addition, 10 fish): 100%
terminal concentration at which the animal has a convulsion (minimum seizure threshold dose, CD50) (zebrafish; zebrafish, 20 mM PTZ solution added at 0.1 ml per minute to 5 ml tank water): around 6 mM
terminal concentration at which the animal has a convulsion (minimum seizure threshold dose, CD50) (Medaka): 10 mM
seizure in well with convulsant only (Medaka fish; FIG. 5 lower left well, 6 mM PTZ): has seizure

CCCC(CCC)C(=O)O [Valproate, valproic acid]
seizure in well with convulsant and anticonvulsant (Medaka fish; FIG. 5 lower right well, 6 mM PTZ and Valproate 5 mM): Only the fish in the lower left well has seizure
seizure in well with anticonvulsant only (Medaka fish; FIG. 5 upper right well, only valproate 5 mM, no convulsant): Only the fish in the lower left well has seizure

NC(=O)OCC(COC(N)=O)c1ccccc1 [felbamate]
blocking seizure specific behavioral movements following electrical stimulation (teleosts): capable of blocking seizure specific behavioral movements

NCC1(CC(=O)O)CCCCC1 [gabapentin]
blocking seizure specific behavioral movements following electrical stimulation (teleosts): capable of blocking seizure specific behavioral movements

O=C1NC(=O)C(c2ccccc2)(c2ccccc2)N1 [phenytoin]
blocking seizure specific behavioral movements following electrical stimulation (teleosts): capable of blocking seizure specific behavioral movements
